“And” between values parts separate entries of the source, which are not always exact repeats. Equal entries are not always repeated. Blank lines part the entries; values can stand above or below the molecule they belong to.
How the values were obtained:
[1] = system: laser-induced thrombosis in the mesenteric microcirculation of the rat; test: Laser-induced thrombosis; assay type: in vivo, Rats Wistar; conditions: for Duration of embolisation / Number of emboli: ASA 50 mg/kg s.c.
Text: Principle of Laser-Induced Thrombosis ([…]. et al., 1989; […]. et al., 1983) In this model, lesion of the vascular wall is induced by a laser beam. This beam causes a limited lesion of the vascular endothelium (only 1 to 2 cells are destroyed). This laying bare of the sub-endothelium, which is a thrombogenetic surface, results in the adherence of platelets via glycoproteins. This adherence of platelets is followed by their activation, they form pseudopods and secrete the content of their granules. This activation results in the appearance of glycoprotein binding sites which are necessary for the aggregation of the platelets between them and for platelet adhesion to the thrombogenic surfaces. This lesion is induced in the mesenteric microcirculation of the rat. It is immediately followed by the formation of a thrombus (in a few seconds). This thrombus, which rapidly enlarges under the influence of the blood flow, embolises before being formed again. The substances were subcutaneously injected 1 hour before the tests.

[2] = system: platelet aggregation induced by ADP; test: Aggregation tests (whole blood aggregometry, ADP 5 μM) after subcutaneous dosing; assay type: in vivo, Rats Wistar
[3] = system: platelet adhesion and thrombus formation on collagen coated surface; test: Parallel plate chamber: platelet adhesion and thrombus formation on collagen coated surface at 60 dynes/cm^2; assay type: cell-based, human
Text: The synergistic effect of asa/betaine on platelet adhesion is studied by perfusing blood on thrombogenic surface such as collagen under shear stress conditions.
Effect of betaine, aspirin or betaine/aspirin combination on platelet adhesion and thrombus formation on collagen coated surface.
We studied the effect of asafbetaine on platelet adhesion and thrombus formation under laminar flow at high shear stress (60 dynes/cm^2) on a collagen coated surface. This high shear stress mimics stenosed arteries. The blood of four fastened healthy subjects was sampled on day 1 as to determine basal values and betaine effect when added in vitro (table1), then the subjects were orally administrated a daily oral bolus dose of 350 mg of ASA during 3 days and their blood sampled on day 3 as to determine ASA effect and ASA+betaine effect when betaine is added in vitro to aspirinized blood at different concentrations (table2).
Citrated human aspirinized blood was pre-labelled with mepacrine and exposed to vehicle alone or betaine (20, 40, and 80 μg/ml) for 20 minutes before perfusion.
The effect of asa/betaine has been evaluated by performing experiments 60 dynes/cm^2 witch mimics arterial thrombosis. Before perfusion citrated whole blood was incubated with saline alone or betaine at concentration of 20, 40, and 80 μg/ml for 20 minutes and then perfused on collagen at 60 dynes/cm^2 At the end of 2 minutes of perfusion, cells were fixed and the area covered by thrombi was calculated by analysis of fluorescent thrombus images acquired by confocal microscopy.
Collagen coated slides. Glass slides were with collagen (200 μg/ml; equine collagen), placed for 1 hour in a water bath at 37° C., and the collagen gel allowed to evaporate for 30 minutes under a ventilated hood. Perfusion with citrated whole blood was started and continued for 2 minutes, then blood was withdrawn from the circuit, and platelet thrombi adherent to the collagen coated surface were fixed and stained with May Grunwald-Giemsa.
Images of platelet thrombi were digitised using a light microscope connected to a computer-based image analysis system. The surface occupied by thrombi and mean thrombus area were evaluated by automatic edge detection using built-in specific functions of a software image.
Platelet adhesion and thrombus formation. Platelet adhesion assay was performed according to the described previously (Alevriadou et al., 1993; Boccardo et al., 1997) with minor modifications. Blood collected on citrate (3,8%) was perfused through a flow chamber using a syringe pump. A flow chamber thermostatized to 37° C. was used in which one surface of the perfusion channel is a glass slide coated with equine collagen.
Flow chamber. The chamber dimensions (30 mm long, 1 mm large, and 150 μm in the thickness) allow to obtain a wide range of shear rate low flow rates of blood.
Citrated whole blood was incubated with the fluorescent dye mepacrine 10 μM (quinacrine dihydrochloride BP; Sigma Chemical, St Louis. MO). Mepacrine concentrated in the dense granules of platelets and in the granules of leukocytes and, at this concentration has no effect on normal platelet function (3). Any fluorescence within the erythrocytes is quenched by haemoglobin. Blood was pre-incubated 5 minutes at 37° C. before perfusion. The system was filled with PBS pH 7.3, then perfusion with blood was started and maintained at the constant flow rate of 1500 sec^−1 (corresponding to a shear stress of 60 dynes/cm^2). After 2 min, perfusion was stopped and the slide with the collagen monolayer was dehydrated and fixed in acetone for 20 minutes.
Images of platelet thrombi on collagen surface were acquired by a confocal inverted laser microscope. The surface occupied by thrombi was evaluated by automatic edge detection using built-in specific functions of a software image.

[4] = cited from earlier work
[5] = Solubility in water / concentrated betaine solution; assay type: physicochemical
[6] = experiment A, ASA 100 mg/kg s.c.
[7] = experiment A, ASA 100 mg/kg s.c., mean
[8] = experiment B, ASA 50 mg/kg s.c.
[9] = experiment B, ASA 50 mg/kg s.c., mean

Structure (SMILES): CC(=O)Oc1ccccc1C(=O)O [ASA, acetylsalicylic acid]
Number of laser shoots ([1]; experiment A, ASA 100 mg/kg s.c. 1 hour before, rats 1-5 and mean): 4 and 3
Number of laser shoots ([1]; experiment A, ASA 100 mg/kg s.c. 1 hour before, rats 1-5 and mean, mean): 3.2 ± 0.45
Duration of embolisation ([1]; experiment B): 4 min and 3 min and 2 min
Number of emboli ([1]; experiment B): 3 and 4
Number of laser shoots ([1]; experiment B, ASA 50 mg/kg s.c. 1 hour before, n=6 rats and mean): 2 and 3
Number of laser shoots ([1]; experiment B, ASA 50 mg/kg s.c. 1 hour before, n=6 rats and mean, mean): 2.33
Duration of embolisation ([1]; experiment B, mean): 2.5 min
Number of emboli ([1]; experiment B, mean): 3.33
Number laser shoots ([1]; experiment C, ASA 100 mg/kg s.c. 1 hour before, 6 rats and mean): 4 and 3 and 2
Amplitude [2, 6]: 2 ohm and 3 ohm and 4 ohm
velocity [2, 6]: 4 ohm/min and 3 ohm/min and 5 ohm/min
Amplitude [2, 7]: 2.6 ± 0.89 ohm
velocity [2, 7]: 3.8 ± 0.84 ohm/min
Amplitude [2, 8]: 8 Ohm and 9 Ohm and 10 Ohm and 7 Ohm
velocity [2, 8]: 7 Ohm/min and 8 Ohm/min and 9 Ohm/min and 6 Ohm/min
Amplitude [2, 9]: 8.5 Ohm
velocity [2, 9]: 7.33 Ohm/min
area covered by thrombi ([3]; aspirinized blood (350 mg ASA oral daily, 3 days) + saline): 72856 pixels/field and 121321 pixels/field and 132458 pixels/field and 122652 pixels/field
solubility in water [4]: about 0.3%

Structure (SMILES): C[N+](C)(C)CC(=O)O [betaine, Betaine monohydrate]
area covered by thrombi ([3]; betaine 20 μg/ml in vitro, 20 minutes, subjects 1-4 and mean, monohydrate): 88746 pixels/field and 135241 pixels/field and 122369 pixels/field and 154425 pixels/field
area covered by thrombi ([3]; betaine 40 μg/ml in vitro, 20 minutes, monohydrate): 66852 pixels/field and 92433 pixels/field and 89628 pixels/field and 95645 pixels/field
area covered by thrombi ([3]; betaine 80 μg/ml in vitro, 20 minutes, monohydrate): 57544 pixels/field and 81585 pixels/field and 76654 pixels/field and 82579 pixels/field
reduction in platelet deposition in respect to vehicle ([3]; betaine 80 μg/ml, Table 1): −49%
effect on platelet deposition and thrombus formation ([3]; high shear stress, versus vehicle-treated blood): significantly inhibit platelet deposition and consequent thrombus formation

amount that can be dissolved ([5]; cold concentrated betaine solution): Up to 5%
amount dissolved relative to pure water ([5]; cold concentrated betaine solution vs pure water): 15 times
Structure (SMILES): O=C(O)c1ccccc1O [salicylic acid]
